# Values of other authors as cited in patent publication US20250186473A1, “Compositions and Methods for Treating Kidney Disease” (Neukidney Incorporated, priority 2023, published 2025).
# Test system: CKD in rat models
# Conditions: oral supplementation, BUN, serum creatinine, fibrosis
structure (smiles),measurement,value
NC(=O)c1cccnc1 [Nicotinamide],effect on progression of CKD,attenuated progression of CKD
